Data from patent US10174030B2 (priority 2014, dated 2019).

Molecular target: LSD1 (Homo sapiens (Human), UniProt O60341)
Assay: biochemical
Procedure: After stopping the reactions plates were incubated for 30 minutes and read on a PHERAstar FS plate reader (BMG Labtech).

COc1ccc(CC2(CN[C@@H]3C[C@H]3c3ccccc3)CCN(CC3(C(=O)O)CC3)CC2)cn1 [Example 69, 1-{[4-[(6-methoxypyridin-3-yl)methyl]-4-({[(1R,2S)-2-phenylcyclopropyl]amino}methyl)piperidin-1-yl]methyl}cyclopropanecarboxylic acid]
IC50: < 100 nM
